The NIST ThermoML archive (doi:10.1021/je200098d)
Numbers after ± are expanded uncertainties.

Conditions: Liquid, Ebulliometric method (Recirculating still)

Row | vapor or sublimation pressure (332.4 K) [kPa] | vapor or sublimation pressure (341.4 K) [kPa] | vapor or sublimation pressure (348.3 K) [kPa] | vapor or sublimation pressure (353.9 K) [kPa] | vapor or sublimation pressure (358.5 K) [kPa] | vapor or sublimation pressure (362.6 K) [kPa] | vapor or sublimation pressure (366.2 K) [kPa] | vapor or sublimation pressure (369.4 K) [kPa] | vapor or sublimation pressure (372.4 K) [kPa] | vapor or sublimation pressure (324.4 K) [kPa] | vapor or sublimation pressure (333.4 K) [kPa] | vapor or sublimation pressure (340 K) [kPa] | vapor or sublimation pressure (345.5 K) [kPa] | vapor or sublimation pressure (350.1 K) [kPa] | vapor or sublimation pressure (354.1 K) [kPa] | vapor or sublimation pressure (357.7 K) [kPa] | vapor or sublimation pressure (360.9 K) [kPa] | vapor or sublimation pressure (363.8 K) [kPa] | SMILES
1 | 5 ± 0.1 | 7.5 ± 0.1 | 10 ± 0.1 | 12.5 ± 0.1 | 15 ± 0.1 | 17.5 ± 0.1 | 20 ± 0.2 | 22.5 ± 0.2 | 25 ± 0.2 |  |  |  |  |  |  |  |  |  | C=Cc1ccccc1 [styrene]
2 |  |  |  |  |  |  |  |  |  | 5 ± 0.1 | 7.5 ± 0.1 | 10 ± 0.1 | 12.5 ± 0.1 | 15 ± 0.1 | 17.5 ± 0.1 | 20 ± 0.2 | 22.5 ± 0.2 | 25 ± 0.2 | CCc1ccccc1 [ethylbenzene]
